{"source": "patent US12215133B2", "about": "(BrightGene Bio-Medical Technology Co., Ltd., priority 2021, dated 2025)", "key": {"db/db mice [1]": {"test_system": "db/db mice", "experiment": "Hypoglycemic effect of BG121 and BG128 in db/db mice (Experimental Example 2)", "assay_type": "in vivo", "details": "for glycosylated hemoglobin content in serum vs solvent control / insulin content in serum vs solvent control: 25 days after administration; for glycosylated hemoglobin content in serum vs solvent control: FIG. 6; for insulin content in serum vs solvent control: FIG. 7; for body weight vs solvent control: day 4, 7, 10, 13, 16, 19, 22, FIG. 5; for non-fasting blood glucose vs solvent control: FIG. 3", "protocol": "Germline: BKS mice (db/db mice); source: Gempharmatech Co., Ltd.; license key: SCXK (SU) 2018-0008; certificate number: 202100117; grade: SPF; number: 32; gender: male; age: 8 weeks (at the beginning of modeling); animal identification: ear tag.\nFeeding conditions: temperature: 22±2° C.; humidity: 40%-70%; lighting: artificial lighting simulates day and night changes; drinking water: free to drink; feed: mouse breeding feed, wherein the mice were fasted overnight before determining fasting blood sugar, and the mice were free to eat for the rest of the time.\nFormulation of BG128 (1 mg/ml) stock solution: a certain amount of BG128 was weighed, an appropriate volume of solvent (20 mM citric acid, pH 7.0) was added, and the mixture was sub-packaged at 100 μl/tube and frozen at −80° C. for later use;\nBG128 (0.0151 mg/ml, for 30 nmol/kg administration): 90 μL of the 1 mg/mL stock solution was taken and added to a 10 mL EP together with 810 μL of the solvent, the mixture was homogeneously mixed in a vortex mixer, then 5044 μL of the solvent was added, and the mixture was homogeneously mixed in a vortex mixer and used up on the same day;\nBG128 (0.0050 mg/ml, for 10 nmol/kg administration): 2 mL of BG128 ([…]) were taken, and 4 mL of the solvent was added, and the mixture was homogeneously mixed in a vortex mixer and used up on the same day.\n32 SPF-grade male BKS-DB mice (db/db mice) were fed adaptively for 1 week. […] During the experiment, the experimenters need to observe the signs and health conditions of the experimental animals. Any abnormal manifestations of animals, such as pain, depression, decreased activity, etc., should be recorded in the original experimental records. If the abnormal manifestations of the experimental animals exceed the regulations in relevant documents for animal welfare, the animal can be euthanized after being notified.\nModeling method: db/db mice would develop spontaneous type 2 diabetes after being fed for 6 weeks, and the mice would develop symptoms, such as obesity, insulin resistance and hyperglycemia;\nMode of administration: it was intended to use subcutaneous injection by the clinical route of administration, the volume of administration is: 10 mL/kg, once every 3 days, for 22 consecutive days;\nFasting blood glucose determination: according to the above-mentioned animal grouping and administration dose, the fasting blood glucose of the mice was determined two days before the first administration and the body weight was determined. […] The fasting blood glucose levels were determined on day 7, 13, 19, and 25 after the first administration (changing the bedding and fasting before the fasting blood glucose determination), and the mice were fasted;\nNon-fasting blood glucose determination: the blood glucose was determined at time points of 1, 3, 6, 24, 48, and 72 hours after the first administration;\nBody weight determination: determined twice a week;\nFood intake determination: determined twice a week.\nAfter 25 days of administration, blood samples were collected by picking the eyeballs, and the serum insulin and glycosylated hemoglobin contents of the mice were determined respectively.\nAll reported determination data was calculated using GraphPad prism8.0 software for group mean and standard deviation."}, "GLP-1 receptor": {"biological_target": "T1, GLP-1 receptor (Homo sapiens, UniProt P43220)", "T1 construct": "expressed in transfected cells; host or cells: HEK293 cell line", "T1 sequence (P43220 24-463, species assumed)": "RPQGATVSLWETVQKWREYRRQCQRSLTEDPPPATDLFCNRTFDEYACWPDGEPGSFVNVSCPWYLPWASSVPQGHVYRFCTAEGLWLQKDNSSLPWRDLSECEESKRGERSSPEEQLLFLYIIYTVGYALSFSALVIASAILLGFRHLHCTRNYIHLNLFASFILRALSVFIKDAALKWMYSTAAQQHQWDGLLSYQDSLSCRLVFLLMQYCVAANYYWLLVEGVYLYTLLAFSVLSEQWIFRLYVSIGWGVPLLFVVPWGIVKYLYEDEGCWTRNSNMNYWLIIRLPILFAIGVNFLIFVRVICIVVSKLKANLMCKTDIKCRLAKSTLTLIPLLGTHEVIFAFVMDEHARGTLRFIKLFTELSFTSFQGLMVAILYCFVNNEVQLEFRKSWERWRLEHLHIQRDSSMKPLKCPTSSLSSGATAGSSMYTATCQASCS", "experiment": "cAMP experiment, GLP-1 receptor (HEK293 host cell line)", "assay_type": "cell-based", "details": "HEK293 host cells"}, "db/db mice [2]": {"test_system": "db/db mice", "experiment": "Inhibitory effect of BG128 on hyperglycemia in db/db mice (Experimental Example 3)", "assay_type": "in vivo", "details": "for Insulin in serum: 3 days after the last administration; for Insulin in serum / Fasting blood glucose: n = 11; for non-fasting blood glucose after the first administration: FIG. 11"}, "[3]": {"details": "10 nmol/kg s.c. once every 3 days"}, "[4]": {"details": "30 nmol/kg s.c. once every 3 days"}, "[5]": {"details": "0.05 mg/kg s.c. once every three days, anticoagulated whole blood, end of experiment, Mean ± SEM"}}, "note": "Marks after values point to notes of the source that are not given here.", "data": [{"smiles": "CNC(CCCCNC(=O)COCCOCCOCCNC(=O)COCCOCCOCCNC(=O)CCC(NC(=O)CC(=O)O)C(=O)O)C(N)=O", "note": "(stereo not shown) [BG128]", "values": [{"measurement": "glycosylated hemoglobin content in serum vs solvent control", "setting": "db/db mice [1]; [3]", "result": "no significant difference"}, {"measurement": "insulin content in serum vs solvent control", "setting": "db/db mice [1]; [3]", "result": "significantly lower than that in the solvent control group"}, {"measurement": "body weight vs solvent control", "setting": "db/db mice [1]; [3]", "result": "no significant difference"}, {"measurement": "non-fasting blood glucose vs solvent control", "setting": "db/db mice [1]; 10 nmol/kg s.c., 1, 3, 6, 24, 48 and 72 h after first administration", "result": "reduce the blood glucose at each time point after the administration in a dose dependent manner"}, {"measurement": "glycosylated hemoglobin content in serum vs solvent control", "setting": "db/db mice [1]; [4]", "result": "significantly lower than that in the BG121 (30 nmol/kg) administration group and the solvent control group"}, {"measurement": "insulin content in serum vs solvent control", "setting": "db/db mice [1]; [4]", "result": "significantly lower than that in the solvent control group"}, {"measurement": "body weight vs solvent control", "setting": "db/db mice [1]; [4]", "result": "significantly lower than that in the solvent control group and the BG121 (30 nmol/kg) administration group"}, {"measurement": "fasting blood glucose vs solvent control", "setting": "db/db mice [1]; 30 nmol/kg s.c. once every 3 days, day 19 and 25 after first administration, FIG. 4", "result": "significantly reduce the fasting blood glucose level"}, {"measurement": "non-fasting blood glucose vs solvent control", "setting": "db/db mice [1]; 30 nmol/kg s.c., 1, 3, 6, 24, 48 and 72 h after first administration", "result": "reduce the blood glucose at each time point after the administration in a dose dependent manner"}, {"measurement": "EC50", "setting": "GLP-1 receptor", "result": 0.11, "unit": "nM"}, {"measurement": "Insulin in serum", "setting": "db/db mice [2]; 0.05 mg/kg s.c. once every three days, Mean ± SD", "result": "37649.0 ± 3597.0ª nIU/mL"}, {"measurement": "Fasting blood glucose", "setting": "db/db mice [2]; 0.05 mg/kg s.c. once every three days, Day 0 (before administration, baseline), Mean ± SD", "result": "23.18 ± 1.15", "unit": "mmol/L"}, {"measurement": "Fasting blood glucose", "setting": "db/db mice [2]; 0.05 mg/kg s.c. once every three days, Day 7, Mean ± SD", "result": "21.68 ± 1.77^b mmol/L"}, {"measurement": "Fasting blood glucose", "setting": "db/db mice [2]; 0.05 mg/kg s.c. once every three days, Day 13, Mean ± SD", "result": "21.68 ± 1.11", "unit": "mmol/L"}, {"measurement": "Fasting blood glucose", "setting": "db/db mice [2]; 0.05 mg/kg s.c. once every three days, Day 19, Mean ± SD", "result": "24.30 ± 1.41^c mmol/L"}, {"measurement": "Fasting blood glucose", "setting": "db/db mice [2]; 0.05 mg/kg s.c. once every three days, Day 25, Mean ± SD", "result": "18.32 ± 1.37^c mmol/L"}, {"measurement": "Fasting blood glucose", "setting": "db/db mice [2]; 0.05 mg/kg s.c. once every three days, Day 31, Mean ± SD", "result": "20.15 ± 1.91^c mmol/L"}, {"measurement": "HbA1C", "setting": "db/db mice [2]; [5]", "result": "5.18 ± 0.23"}, {"measurement": "HbA1C%", "setting": "db/db mice [2]; [5]", "result": "4.07 ± 0.13ª %"}, {"measurement": "Insulin in serum", "setting": "db/db mice [2]; 0.15 mg/kg s.c. once every three days, Mean ± SD", "result": "30897.0 ± 5634.0^a nIU/mL"}, {"measurement": "Fasting blood glucose", "setting": "db/db mice [2]; 0.15 mg/kg s.c. once every three days, Day 0 (before administration, baseline), Mean ± SD", "result": "23.17 ± 1.19", "unit": "mmol/L"}, {"measurement": "Fasting blood glucose", "setting": "db/db mice [2]; 0.15 mg/kg s.c. once every three days, Day 7, Mean ± SD", "result": "22.78 ± 1.11^a mmol/L"}, {"measurement": "Fasting blood glucose", "setting": "db/db mice [2]; 0.15 mg/kg s.c. once every three days, Day 13, Mean ± SD", "result": "21.58 ± 1.13", "unit": "mmol/L"}, {"measurement": "Fasting blood glucose", "setting": "db/db mice [2]; 0.15 mg/kg s.c. once every three days, Day 19, Mean ± SD", "result": "26.14 ± 1.05^b mmol/L"}, {"measurement": "Fasting blood glucose", "setting": "db/db mice [2]; 0.15 mg/kg s.c. once every three days, Day 25, Mean ± SD", "result": "15.70 ± 1.50^c mmol/L"}, {"measurement": "Fasting blood glucose", "setting": "db/db mice [2]; 0.15 mg/kg s.c. once every three days, Day 31, Mean ± SD", "result": "20.38 ± 1.87^c mmol/L"}, {"measurement": "HbA1C%", "setting": "db/db mice [2]; 0.15 mg/kg s.c. once every three days, anticoagulated whole blood, end of experiment, Mean ± SEM", "result": "4.04 ± 0.14ª %"}, {"measurement": "Insulin in serum", "setting": "db/db mice [2]; 0.5 mg/kg s.c. once every three days, Mean ± SD", "result": "32774.0 ± 6290.0^a nIU/mL"}, {"measurement": "Fasting blood glucose", "setting": "db/db mice [2]; 0.5 mg/kg s.c. once every three days, Day 0 (before administration, baseline), Mean ± SD", "result": "22.99 ± 1.35", "unit": "mmol/L"}, {"measurement": "Fasting blood glucose", "setting": "db/db mice [2]; 0.5 mg/kg s.c. once every three days, Day 7, Mean ± SD", "result": "15.54 ± 1.49^c mmol/L"}, {"measurement": "Fasting blood glucose", "setting": "db/db mice [2]; 0.5 mg/kg s.c. once every three days, Day 13, Mean ± SD", "result": "16.79 ± 1.20^c mmol/L"}, {"measurement": "Fasting blood glucose", "setting": "db/db mice [2]; 0.5 mg/kg s.c. once every three days, Day 19, Mean ± SD", "result": "13.26 ± 1.91^c mmol/L"}, {"measurement": "Fasting blood glucose", "setting": "db/db mice [2]; 0.5 mg/kg s.c. once every three days, Day 25, Mean ± SD", "result": "11.85 ± 1.74^c mmol/L"}, {"measurement": "Fasting blood glucose", "setting": "db/db mice [2]; 0.5 mg/kg s.c. once every three days, Day 31, Mean ± SD", "result": "16.41 ± 1.68^c mmol/L"}, {"measurement": "non-fasting blood glucose after the first administration", "setting": "db/db mice [2]; BG128 dose groups 0.05, 0.15, 0.5 mg/kg s.c., 0-72 h", "result": "decreased rapidly within 24 h after the first administration"}, {"measurement": "body weight during the first administration", "setting": "db/db mice [2]; Tirzepatide 0.15 mg/kg, BG128 0.05, 0.15, 0.5 mg/kg s.c., FIG. 8 and 9", "result": "positively correlated with the administration dose"}, {"measurement": "food intake after the first administration vs db/db-ND group", "setting": "db/db mice [2]; Tirzepatide 0.15 mg/kg, BG128 0.05, 0.15, 0.5 mg/kg s.c., FIG. 10", "result": "positively correlated with the administration dose"}, {"measurement": "animal body weight loss rate compared with Tirzepatide", "setting": "db/db mice [2]; equal dose (0.15 mg/kg s.c.), FIG. 8 and 9", "result": "better than that of Tirzepatide administration group"}, {"measurement": "decrease in food intake compared with Tirzepatide", "setting": "db/db mice [2]; equal dose (0.15 mg/kg s.c.), FIG. 10", "result": "significantly greater than that of the positive control group Tirzepatide"}, {"measurement": "non-fasting blood glucose after the first administration", "setting": "db/db mice [2]; high-dose group 0.5 mg/kg s.c., 24 h-72 h after administration", "result": "maintained in a relatively low range"}]}]}
